Molecules are shown by their SMILES.

The results in this text go back to ChEMBL document CHEMBL1667840, “Chemical and biological explorations of the electrophilic reactivity of the bioactive marine natural product halenaquinone with biomimetic nucleophiles” (Bioorg Med Chem Lett, 2011).

Assay [1] deals with T1, Phospholipase A2 (Apis mellifera, UniProt P00630).
T1 sequence (P00630 whole entry): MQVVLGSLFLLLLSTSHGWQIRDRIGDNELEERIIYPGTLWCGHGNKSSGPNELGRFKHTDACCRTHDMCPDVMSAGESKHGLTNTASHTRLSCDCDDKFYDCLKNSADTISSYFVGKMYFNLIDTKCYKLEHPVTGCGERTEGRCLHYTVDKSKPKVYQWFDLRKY
The experiment in a line: Inhibition of bee venom phospholipase A2 after 5 mins by spectrophotometric analysis.

For assay [2], the system named is Vero. The experiment in a line: Cytotoxicity against african green monkey Vero cells assessed as inhibition of [3H]hypoxanthine incorporation after 48 hrs. Format: cell-based. The settings on record: Chlorocebus sabaeus.
For assay [3], the system named is Plasmodium falciparum. The experiment in a line: Antiplasmodial activity against chloroquine-sensitive Plasmodium falciparum 3D7 after 48 hrs. In kind it is functional, organism-based. The following applies: 3D7, 48 h.
Assay [4] can be described thus: Inhibition of Saccharomyces cerevisiae FTase after 15 mins by fluorimetric analysis.
Assay [5] concerns Plasmodium falciparum. The experiment in a line: Antiplasmodial activity against chloroquine-resistant Plasmodium falciparum FcB1 after 48 hrs. In kind it is functional, organism-based. The following applies: FcB1/Columbia.
Assay [6] addresses Protein farnesyltransferase (Homo sapiens, UniProt P49354+P49356). Briefly: Inhibition of human FTase after 15 mins by fluorimetric analysis. Format: protein-complex assay.

For orientation: IC50 means the concentration that gives 50% inhibition. As to `C[C@@]12CCC(=O)/C(=C\NCCc3ccccc3)C1=C(O)C(=O)c1cc3c(cc12)C(=O)C=CC3=O`, the IC50 in assay [1] was found to be 17.7 µM; in assay [2] it was 4.7 µM; in assay [3], 2.1 µM; in assay [4] it was 0.31 µM; in assay [5] it was 8.8 µM; in assay [6], 0.44 µM.
For the compound `CCCCCN/C=C1\C(=O)CC[C@]2(C)C1=C(O)C(=O)c1cc3c(cc12)C(=O)C=CC3=O`, the IC50 came out at 23.9 µM in assay [1]; 6.3 µM in assay [2]; 7.4 µM in assay [3]; 0.041 µM in assay [4]; 9.2 µM in assay [5]; 0.057 µM in assay [6].
Consider `CC(C)(C)OC(=O)NCCN/C=C1\C(=O)CC[C@]2(C)C1=C(O)C(=O)c1cc3c(cc12)C(=O)C=CC3=O`, for which the figures for the IC50 in assay [1], in assay [2] and in assay [5] were 12.8 µM, 7.4 µM and 52.8 µM, respectively.
For `CC(C)=CCC/C(C)=C/CN/C=C1\C(=O)CC[C@]2(C)C1=C(O)C(=O)c1cc3c(cc12)C(=O)C=CC3=O`, the IC50 in assay [1] stood at 34.4 µM; in assay [2] it was 8.6 µM; in assay [3], 0.53 µM; in assay [4], 0.017 µM; in assay [5], 0.62 µM; in assay [6], 0.031 µM.
Take `COC(=O)CN/C=C1\C(=O)CC[C@]2(C)C1=C(O)C(=O)c1cc3c(cc12)C(=O)C=CC3=O`: the IC50 turned out to be 76.8 µM in assay [1], 13.4 µM in assay [2], 16.5 µM in assay [3] and 55.8 µM in assay [5].
For the compound `C[C@@]12CCC(=O)c3coc(c31)C(=O)c1cc3c(cc12)C(=O)C=CC3=O` [HELENAQUINONE], the IC50 in assay [2] is > 60 µM; in assay [3], 30 µM; in assay [4] it was 1.6 µM; in assay [5], > 30 µM.
As for `CC1=CCCC2(C)C1=C(O)C(=O)c1cc3c(cc12)C(=O)C=CC3=O` (stereo unspecified) [ORHALQUINONE], the IC50 in assay [2] was > 62 µM; in assay [4], 0.4 µM.
